# Key:
# Balb/c mice = experiment: Light model assay (light damage), eye drops, rows of photoreceptors; format: in vivo, mouse; conditions: 100 μM eye drops once daily; continuous light for 7 days; maximum effect
# Excerpt: The light model assay is generally accepted as a model of age related macular degeneration (AMD). […] In particular, oxidative damage has been detected by immunohistochemistry, detecting the presence of oxidized and tyrosine-phosphorylated proteins as well as the upregulation of endogenous antioxidants such as thioredoxin and glutathione peroxidase.
# The light model assay was used to further test the therapeutic potential of the compounds of the invention. Photoreceptors from albino animals are very sensitive to constant light, lacking the RPE pigment to protect them. […] To test the potential therapeutic efficacy, eye drops were formulated in 0.1% Myrj in 0.9% saline, applied once daily throughout the period of light exposure, and their effect assessed on the light-induced degeneration of photoreceptor cells morphologically and electrophysiologically, 10 days after the onset of the CL exposure.
# 661W or C6 cells = experiment: Metabolic Protection Assay (MTT), protection from calcium-ionophore A23187; format: cell-based; conditions: 1 μM ionophore, 24 h
# Protocol: The compound 3-(4,5-Dimethylthiazol-2-yl)-2,5-diphenyltetrazolium bromide (MTT) is a tetrazolium ion that is reduced to a blue formazan dye via several families of NAD(P)H-dependent oxidoreductases. Formation of the formazan dye from MTT or other related tetrazolium dyes are commonly used as a viability assay even though, in fact, the assay is a metabolic capacity assay.
# In this assay, 661W or C6 cells were maintained in DMEM supplemented with 10% serum. 100 of 70,000 cells/mL cells were seeded into each well of 96 well plates using DMEM supplemented with 5% serum. Cells were then allowed to grow to confluency for 48 hours. Representative compounds of the invention were added in 2 μL media and calcium-ionophore A23187 was then added in 1 μL for a final concentration of 1 μM and after 24 h, 20 uL of […] MTT were added to each well and the cells were incubated for another 4 h after which 100 μL of 1% SDS in 0.01 M aqueous HCl were added to each well and the plates were incubated overnight. Absorbance was measured at […] (background correction). The 1 μM ionophore A23187 caused about 50% loss in MTT signal at 24 h. Protection was calculated as the increase in absorbance of treatment groups normalized to the vehicle control.
# rd10 mouse = experiment: Rd10 mouse model of RP, eye drops, rows of photoreceptors; format: in vivo; conditions: 100 μM eye drops once daily from postnatal day 14, assessed at postnatal day 25; P < 0.005; vehicle 2.3 ± 0.23
# Excerpt: To test the potential therapeutic efficacy, eye drops were formulated in 0.1% Myrj in 0.9% saline, applied once daily starting at the day of eye opening (postnatal day 14), and their effect assessed on the degeneration of photoreceptor cells morphologically at postnatal day 25.
# rd1 mouse = experiment: Rd1 mouse model of RP (retina organ culture), rows of photoreceptors; format: cell-based; conditions: 10 nM; equivalent of postnatal day 21; P = 0.04; rd1 vehicle 1.81 ± 0.09
# Protocol: For the calcium-overload in vitro, the rd1 mouse was utilized (e.g., Farber et al., 1995). […] To test the potential therapeutic efficacy, compounds were added to the culture media starting the day after the start of the culture (equivalent to postnatal day 11) and replaced every 48 hours. Effects were assessed on the degeneration of photoreceptor cells morphologically at the equivalent of postnatal day 21.
SMILES,LD Protection (# of rows) (Balb/c mice),loss in MTT signal (661W or C6 cells),rd10 protection (# of rows) (rd10 mouse),rd1 protection (# of rows) (rd1 mouse)
"CCN1C(=O)C(Cc2cccc(OC)c2OC(=O)NCCOCCO)(OC(=O)c2ccccc2)c2cc(Cl)ccc21 (stereo not drawn) [Example 12, 5-chloro-1-ethyl-3-(2-(((2-(2-hydroxyethoxy)ethyl)carbamoyl)oxy)-3-methoxybenzyl)-2-oxoindolin-3-yl benzoate]",(100 μM) 4.87 ± 0.22 (P < 0.01) # of rows,,,
CNc1ccc2oc(C[C@H]3O[C@@]4(CC[C@H]3C)O[C@H]([C@H](C)C(=O)c3ccc[nH]3)[C@H](C)C[C@H]4C)nc2c1C(=O)O [Example A23187],,about 50%,,
"CCN1C(=O)C(O)(Cc2cccc3c2OCO3)c2cc(C)ccc21 (stereo not drawn) [Example 17, 3-(benzo[d][1,3]dioxol-4-ylmethyl)-1-ethyl-3-hydroxy-5-methylindolin-2-one]",(100 μM) 6.48 ± 0.13 (P < 0.001) # of rows,,,
"CCN1C(=O)C(Cc2cccc(OC)c2O)(OC(=O)N(C)C)c2cc(Cl)ccc21 (stereo not drawn) [Example 10, 5-chloro-1-ethyl-3-(2-hydroxy-3-methoxybenzyl)-2-oxoindolin-3-yl dimethylcarbamate]",(100 μM) 5.8 ± 0.34 (P < 0.001) # of rows,,(100 μM) 2.8 ± 0.48 (P < 0.005) # of rows,(10 nM) 2.51 ± 0.25 (P = 0.04) # of rows

# Reference: patent US10370328B2, “Oxindole compounds and pharmaceutical compositions thereof” (MUSC FOUNDATION FOR RESEARCH DEVELOPMENT, priority 2015, dated 2019)
